Measurements as given in US20250223259A1, “PROTEASE INHIBITORS FOR TREATING OR PREVENTING CORONAVIRUS INFECTION” (Merck Sharp & Dohme LLC, priority 2022, published 2025).

target: SARS2 coronavirus 3CL protease (Severe acute respiratory syndrome coronavirus 2 (2019-nCoV) (SARS-CoV-2), UniProt P0DTD1); test: SARS2 Coronavirus 3CL Protease Assay (FRET); assay type: biochemical; conditions: SARS2 3CLPro FRET assay; 5 nM enzyme, 30 min pre-incubation with compound, 15 uM peptide substrate, 4 h room temperature

Compared with `COC(=O)N[C@H](C(=O)N1CCC(C)(C)CC1C(=O)N[C@@H](CCC(C)(F)F)C(=O)C(=O)NC1CC1)C(C)(C)C` (single isomer, unassigned) [Example 37, Methyl ((S)-1-((R or S)-(2-(((S)-1-(cyclopropylamino)-6,6-difluoro-1,2-dioxoheptan-3-yl)carbamoyl)-4,4-dimethylpiperidin-1-yl)-3,3-dimethyl-1-oxobutan-2-yl)carbamate], `COC(=O)N[C@H](C(=O)N1CCC(F)(F)CC1C(=O)N[C@@H](CCC(C)(F)F)C(=O)C(=O)NC1CC1)C(C)(C)C` (single isomer, unassigned) [Example 45, Methyl ((S)-1-(R or S)-(2-(((S)-1-(cyclopropylamino)-6,6-difluoro-1,2-dioxoheptan-3-yl)carbamoyl)-4,4-difluoropiperidin-1-yl)-3,3-dimethyl-1-oxobutan-2-yl)carbamate] is 3.7-fold higher in IC50: 9.2 nM for the first, 34 nM for the second.

`COC(=O)N[C@@H](Cc1ccccc1)C(=O)N1CC[C@@H](C(F)(F)F)C[C@H]1C(=O)N[C@@H](CCC(C)(F)F)C(=O)C(=O)NC1CC1` [Example 68, Methyl ((S)-1-((2S,4R)-2-(((S)-1-(cyclopropylamino)-6,6-difluoro-1,2-dioxoheptan-3-yl)carbamoyl)-4-(trifluoromethyl)piperidin-1-yl)-1-oxo-3-phenylpropan-2-yl)carbamate] and `COC(=O)N[C@H](C(=O)N1CCC(C(F)F)CC1C(=O)N[C@@H](CCC(C)(F)F)C(=O)C(=O)NC1CC1)C(C)(C)C` (single isomer, unassigned) [Example 108, methyl ((S)-1-((2(S or R),4(R or S)-2-(((S)-1-(cyclopropylamino)-6,6-difluoro-1,2-dioxoheptan-3-yl)carbamoyl)-4-(difluoromethyl)piperidin-1-yl)-3,3-dimethyl-1-oxobutan-2-yl)carbamate] are within 1.5-fold of each other in IC50: 28 nM for the first, 22 nM for the second.

`CC(F)(F)CC[C@H](NC(=O)[C@@H]1[C@@H]2[C@H](CN1C(=O)[C@@H](NC(=O)OCc1ccccc1)C1CCCCC1)C21CCCCC1)C(=O)C(=O)NC1CC1` [Example 66, Benzyl ((S)-1-cyclohexyl-2-((1R,2S,5S)-2-(((S)-1-(cyclopropylamino)-6,6-difluoro-1,2-dioxoheptan-3-yl)carbamoyl)-3-azaspiro[bicyclo[3.1.0]hexane-6,1'-cyclohexan]-3-yl)-2-oxoethyl)carbamate] and `COC(=O)N[C@H](C(=O)N1C[C@H]2[C@@H]([C@H]1C(=O)N[C@@H](CCC(C)(F)F)C(=O)C(=O)NC1CC1)C21CCCC1)C(C)(C)C` [Example 38, Methyl ((S)-1-((1R,2S,5S)-2-(((S)-1-(cyclopropylamino)-6,6-difluoro-1,2-dioxoheptan-3-yl)carbamoyl)-3-azaspiro[bicyclo[3.1.0]hexane-6,1′-cyclopentan]-3-yl)-3,3-dimethyl-1-oxobutan-2-yl)carbamate] are within 1.5-fold of each other in IC50: 9.9 nM for the first, 9.7 nM for the second.

Compared with `COC(=O)N[C@H](C(=O)N1CCCC(C)C1C(=O)N[C@@H](CCC(C)(F)F)C(=O)C(=O)NC1CC1)C(C)(C)C` (single isomer, unassigned) [Example 49, Methyl ((S)-1-((2(R or S),3(R or S))-2-(((S)-1-(cyclopropylamino)-6,6-difluoro-1,2-dioxoheptan-3-yl)carbamoyl)-3-methylpiperidin-1-yl)-3,3-dimethyl-1-oxobutan-2-yl)carbamate], `COC(=O)N[C@H](C(=O)N1CCCC(C2CC2)C1C(=O)N[C@@H](CCC(C)(F)F)C(=O)C(=O)NC1CC1)C(C)(C)C` (single isomer, unassigned) [Example 90, methyl ((S)-1-((2S,3R or 2R,3S)-3-cyclopropyl-2-(((S)-1-(cyclopropylamino)-6,6-difluoro-1,2-dioxoheptan-3-yl)carbamoyl)piperidin-1-yl)-3,3-dimethyl-1-oxobutan-2-yl)carbamate] is 3.8-fold lower in IC50: 60 nM for the first, 16 nM for the second. The second is the more potent here.

`COC(=O)N[C@H](C(=O)N1CC(C)CCC1C(=O)N[C@@H](CCC(C)(F)F)C(=O)C(=O)NC1CC1)C(C)(C)C` (single isomer, unassigned) [Example 30, Methyl ((S)-1-(2(R or S), 5(R or S)-(((S)-1-(cyclopropylamino)-6,6-difluoro-1,2-dioxoheptan-3-yl)carbamoyl)-5-methylpiperidin-1-yl)-3,3-dimethyl-1-oxobutan-2-yl)carbamate] and `COC(=O)N[C@H](C(=O)N1CC(C23CC(C2)C3)C[C@H]1C(=O)N[C@@H](CCC(C)(F)F)C(=O)C(=O)NC1CC1)C(C)(C)C` (single isomer, unassigned) [Example 2, Methyl ((S)-1-((2S,4(R or S))-4-(bicyclo[1.1.1]pentan-1-yl)-2-(((S)-1-(cyclopropylamino)-6,6-difluoro-1,2-dioxoheptan-3-yl)carbamoyl)pyrrolidin-1-yl)-3,3-dimethyl-1-oxobutan-2-yl)carbamate] are within 1.5-fold of each other in IC50: 40 nM for the first, 29 nM for the second.

`CNC(=O)C(=O)[C@H](CCC(C)(F)F)NC(=O)C1C2CC(F)(F)CC2CN1C(=O)[C@@H](NC(=O)OC)C(C)(C)C` (single isomer, unassigned) [Example 105, methyl ((S)-1-((1S,3aR,6aS or 1R,3aS,6aR or 1S,3aS,6aR or 1R,3aR,6aS)-1-(((S)-6,6-difluoro-1-(methylamino)-1,2-dioxoheptan-3-yl)carbamoyl)-5,5-difluorohexahydrocyclopenta[c]pyrrol-2(1H)-yl)-3,3-dimethyl-1-oxobutan-2-yl)carbamate] and `CNC(=O)C(=O)[C@H](CCC(C)(F)F)NC(=O)[C@@H]1[C@@H]2CC[C@@H](C2)CN1C(=O)[C@@H](NC(=O)OC)C(C)(C)C` [Example 89, methyl ((S)-1-((1R,2S,5S)-2-(((S)-6,6-difluoro-1-(methylamino)-1,2-dioxoheptan-3-yl)carbamoyl)-3-azabicyclo[3.2.1]octan-3-yl)-3,3-dimethyl-1-oxobutan-2-yl)carbamate] are within 1.5-fold of each other in IC50: 11 nM for the first, 13 nM for the second.

Compared with `COCCNC(=O)C(=O)[C@H](CCC(C)(F)F)NC(=O)[C@@H]1[C@H]2CCC[C@H]2CN1C(=O)[C@@H](NC(=O)OC)C(C)(C)C` [Example 102, methyl ((S)-1-((1S,3aR,6aS)-1-(((S)-6,6-difluoro-1-((2-methoxyethyl)amino)-1,2-dioxoheptan-3-yl)carbamoyl)hexahydrocyclopenta[c]pyrrol-2(1H)-yl)-3,3-dimethyl-1-oxobutan-2-yl)carbamate], `COC(=O)N[C@H](C(=O)N1C[C@@H]2CCC[C@@H]2[C@H]1C(=O)N[C@@H](CCC(C)(F)F)C(=O)C(=O)NC1CC1)[C@@H](C)OC` [Example 118, methyl ((2S,3R)-1-((1S,3aR,6aS)-1-(((S)-1-(cyclopropylamino)-6,6-difluoro-1,2-dioxoheptan-3-yl)carbamoyl)hexahydrocyclopenta[c]pyrrol-2(1H)-yl)-3-methoxy-1-oxobutan-2-yl)carbamate] is 4.4-fold lower in IC50: 61 nM for the first, 14 nM for the second.

Going from `CNC(=O)C(=O)[C@H](CCC(C)(F)F)NC(=O)C1CC(C)(F)CCN1C(=O)[C@@H](NC(=O)OC)C(C)(C)C` (single isomer, unassigned) [Example 97, methyl ((S)-1-((2S,4S or 2R,4R)-2-(((S)-6,6-difluoro-1-(methylamino)-1,2-dioxoheptan-3-yl)carbamoyl)-4-fluoro-4-methylpiperidin-1-yl)-3,3-dimethyl-1-oxobutan-2-yl)carbamate] to `CNC(=O)C(=O)[C@H](CCC(C)(F)F)NC(=O)[C@@H]1CC2(CCC2(F)F)CN1C(=O)[C@@H](NC(=O)OC)C(C)(C)C` (single isomer, unassigned) [Example 103, methyl ((S)-1-((4(S or R),7S)-7-(((S)-6,6-difluoro-1-(methylamino)-1,2-dioxoheptan-3-yl)carbamoyl)-1,1-difluoro-6-azaspiro[3.4]octan-6-yl)-3,3-dimethyl-1-oxobutan-2-yl)carbamat], the IC50 rises from 19 nM to 32 nM (1.7-fold). The first is the more potent here.

First: CNC(=O)N[C@H](C(=O)N1CC2(CCCCC2)C[C@H]1C(=O)N[C@@H](CCC(C)(F)F)C(=O)C(=O)NC1CC1)C(C)(C)C [Example 75, (S)-N-((S)-1-(cyclopropylamino)-6,6-difluoro-1,2-dioxoheptan-3-yl)-2-((S)-3,3-dimethyl-2-(3-methylureido)butanoyl)-2-azaspiro[4.5]decane-3-carboxamide]
Second: COC(=O)N[C@H](C(=O)N1CC2(CCCCC2)C[C@H]1C(=O)N[C@@H](CCC(C)(F)F)C(=O)C(=O)NC(C)(C)C)C(C)(C)C [Example 18, Methyl ((S)-1-((S)-3-(((S)-1-(tert-butylamino)-6,6-difluoro-1,2-dioxoheptan-3-yl)carbamoyl)-2-azaspiro[4.5]decan-2-yl)-3,3-dimethyl-1-oxobutan-2-yl)carbamate]
The IC50 of the first is 2-fold higher: 82 nM for the first, 42 nM for the second.

Compared with `COC(=O)NC1(C(=O)N2CC3(CCCCC3)C[C@H]2C(=O)N[C@@H](CCC(C)(F)F)C(=O)C(=O)NC2CC2)CC1` [Example 19, Methyl (1-((S)-3-(((S)-1-(cyclopropylamino)-6,6-difluoro-1,2-dioxoheptan-3-yl)carbamoyl)-2-azaspiro[4.5]decane-2-carbonyl)cyclopropyl) carbamate], `COC(=O)N[C@H](C(=O)N1C[C@H]2[C@H](CCC2(F)F)[C@H]1C(=O)N[C@@H](CCC(C)(F)F)C(=O)C(=O)NC1CC1)C(C)(C)C` [Example 33, Methyl ((S)-1-((1S,3aR,6aS)-1-(((S)-1-(cyclopropylamino)-6,6-difluoro-1,2-dioxoheptan-3-yl)carbamoyl)-4,4-difluorohexahydrocyclopenta[c]pyrrol-2(1H)-yl)-3,3-dimethyl-1-oxobutan-2-yl)carbamate] is 51-fold lower in IC50: 497 nM for the first, 9.7 nM for the second.

Going from `COC(=O)N[C@H](C(=O)N1CCC2(CC2)C[C@H]1C(=O)N[C@@H](CCC(C)(F)F)C(=O)C(N)=O)C(C)(C)C` [Example 20, Methyl ((S)-1-((S)-5-(((S)-1-amino-6,6-difluoro-1,2-dioxoheptan-3-yl)carbamoyl)-6-azaspiro[2.5]octan-6-yl)-3,3-dimethyl-1-oxobutan-2-yl)carbamate] to `CNC(=O)C(=O)[C@H](CCC(C)(F)F)NC(=O)[C@@H]1CC[C@H](C)N1C(=O)[C@@H](NC(=O)OC)C(C)(C)C` [Example 85, methyl ((S)-1-((2S,5S)-2-(((S)-6,6-difluoro-1-(methylamino)-1,2-dioxoheptan-3-yl)carbamoyl)-5-methylpyrrolidin-1-yl)-3,3-dimethyl-1-oxobutan-2-yl)carbamate], the IC50 rises from 7.4 nM to 257 nM (35-fold).
